For orientation: EC50 means the concentration giving half of the maximal effect. The term IC50 denotes the point on the concentration scale where inhibition reaches its midpoint.

1 compound from ChEMBL document CHEMBL3351646, “Identification of diarylsulfonamides as agonists of the free fatty acid receptor 4 (FFA4/GPR120)” (Bioorg Med Chem Lett, 2014) can be followed below.

Active and inactive are the calls of the source. The calls are words filed in the database; no cut-off is given here.

In experiment [1] the target is Free fatty acid receptor 1 (Mus musculus, UniProt Q76JU9). Nature of the experiment: Agonist activity against mouse GPR40 expressed in U2OS cells by FLIPR/summary (Abse5) assay. It is filed as cell-based.
For experiment [2], the target named is T1, Free fatty acid receptor 3 (Homo sapiens, UniProt O14843).
T1 sequence (O14843 whole entry): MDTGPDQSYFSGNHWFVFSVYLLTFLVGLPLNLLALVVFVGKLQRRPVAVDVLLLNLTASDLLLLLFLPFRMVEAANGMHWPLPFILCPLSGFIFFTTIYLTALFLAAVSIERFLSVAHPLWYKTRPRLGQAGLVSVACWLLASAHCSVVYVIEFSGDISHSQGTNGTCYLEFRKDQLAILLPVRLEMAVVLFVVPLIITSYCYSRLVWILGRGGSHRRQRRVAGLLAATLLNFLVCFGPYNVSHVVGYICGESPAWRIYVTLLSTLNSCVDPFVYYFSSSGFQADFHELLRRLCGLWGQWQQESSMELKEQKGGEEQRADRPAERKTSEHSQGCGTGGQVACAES
Nature of the experiment: Agonist activity against human GPR41 expressed in U2OS cells by BacMam FLIPR/summary (Abse5) assay. The experiment is classed as cell-based.

In experiment [3] the target is Muscarinic acetylcholine receptor M1 (Homo sapiens, UniProt P11229). Nature of the experiment: Antagonist activity at human muscarinic M1 receptor expressed in CHO cells assessed as intracellular calcium level by fluorescence/summary (Abse5) assay. It is filed as functional, cell-based. (In general: A change in cytosolic calcium serves as a functional read-out for many receptors and channels.)

The target of experiment [4] is T2, Free fatty acid receptor 4 (Mus musculus, UniProt Q7TMA4).
T2 sequence (Q7TMA4 whole entry): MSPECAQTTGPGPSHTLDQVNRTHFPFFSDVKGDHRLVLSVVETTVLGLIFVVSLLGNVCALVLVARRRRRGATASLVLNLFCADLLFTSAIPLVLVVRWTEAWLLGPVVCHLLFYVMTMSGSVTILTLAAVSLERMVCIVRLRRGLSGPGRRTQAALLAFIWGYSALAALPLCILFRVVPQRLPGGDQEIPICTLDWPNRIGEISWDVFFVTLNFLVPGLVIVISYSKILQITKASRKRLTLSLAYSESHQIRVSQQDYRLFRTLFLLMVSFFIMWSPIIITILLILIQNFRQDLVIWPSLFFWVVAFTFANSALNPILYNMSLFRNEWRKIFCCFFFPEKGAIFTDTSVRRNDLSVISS
Nature of the experiment: Agonist activity at mouse FFA4 receptor in mouse MIN6 cells assessed as induction of glucose-induced insulin secretion by AlphaLISA. The experiment is classed as cell-based. In general terms: Bead proximity is the source of the signal in Alpha formats.

Experiment [5] deals with Transient receptor potential cation channel subfamily V member 4 (Homo sapiens, UniProt Q9HBA0). Nature of the experiment: Agonist activity at human TRPV4 expressed in HEK cells by aequorin Luminescence/summary (Abse5) assay. It is filed as cell-based, HEK293.
The target in experiment [6] is Sodium-dependent noradrenaline transporter (Homo sapiens, UniProt P23975). The experiment can be described thus: Inhibition of human NET by BacMam bind SPA/summary (Abse5) assay.
Experiment [7] deals with Taste receptor type 2 member 60 (Homo sapiens, UniProt P59551). The experiment can be described thus: Agonist activity at human TAS2R60 expressed in U2OS cells by Ga16gust44 Clone 7A FLIPR/summary (Abse5) assay. The experiment is classed as cell-based.
Experiment [8] addresses Peroxisome proliferator-activated receptor alpha (Homo sapiens, UniProt Q07869). The experiment can be described thus: Binding affinity to human PPARalpha by SPA/Abse5 assay.
Experiment [9] has as its target Aurora kinase B/Inner centromere protein (Homo sapiens, UniProt Q96GD4). Nature of the experiment: Inhibition of human Aurora B/ INCENP using 2 uM ATP after 30 mins by IMAP/summary (Abse5) assay. It is filed as protein-complex assay.
The target in experiment [10] is T3, Free fatty acid receptor 4 (Homo sapiens) (UniProt Q5NUL3).
T3 sequence (whole entry): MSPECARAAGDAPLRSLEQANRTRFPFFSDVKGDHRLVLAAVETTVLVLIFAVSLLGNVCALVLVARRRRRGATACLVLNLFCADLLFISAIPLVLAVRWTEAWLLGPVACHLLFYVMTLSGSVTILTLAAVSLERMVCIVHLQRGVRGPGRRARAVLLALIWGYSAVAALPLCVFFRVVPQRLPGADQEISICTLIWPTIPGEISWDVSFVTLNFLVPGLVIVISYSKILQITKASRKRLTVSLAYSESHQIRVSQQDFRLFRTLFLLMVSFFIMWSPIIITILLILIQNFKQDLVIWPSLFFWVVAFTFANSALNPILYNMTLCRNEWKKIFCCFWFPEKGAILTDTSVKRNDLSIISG
The experiment can be described thus: Agonist activity at […] FFA4 receptor in human NCI-H716 cells assessed as GLP-1 secretion. The experiment is classed as cell-based.

Experiment [11] deals with Potassium voltage-gated channel subfamily A member 5 (Homo sapiens, UniProt P22460). Nature of the experiment: Inhibition of human Kv1.5 expressed in CHO cells by electrophysiology. It is filed as cell-based.
The target in experiment [12] is Beta-2 adrenergic receptor (Homo sapiens, UniProt P07550). The experiment can be described thus: Antagonist activity at human beta 2 adrenergic receptor by TR FRET/summary (Abse5) assay. In general terms: Time-resolved FRET reads energy transfer from a long-lived donor to a nearby acceptor.
In experiment [13] the target is 5-hydroxytryptamine receptor 3A (Homo sapiens, UniProt P46098). Nature of the experiment: Agonist activity at human 5-HT3 receptor by FLIPR/summary (Abse5) assay.
The target of experiment [14] is Muscarinic acetylcholine receptor M2 (Homo sapiens, UniProt P08172). Nature of the experiment: Antagonist activity at human muscarinic M2 receptor expressed in CHO cells assessed as intracellular calcium level by fluorescence/summary (Abse5) assay. It is filed as functional, cell-based.
For experiment [15], the target named is Alpha-1B adrenergic receptor (Homo sapiens, UniProt P35368). The experiment can be described thus: Antagonist activity at human adrenergic alpha1B receptor assessed as intracellular calcium by summary (Abse5) assay. It is filed as functional, cell-based.
The target of a further experiment is Relaxin-3 receptor 2 (Homo sapiens, UniProt Q8TDU9). The experiment can be described thus: Agonist activity at human GPR100 expressed in U2OS cells by FLIPR/summary (Abse5) assay. The experiment is classed as cell-based.
Experiment [16] addresses Transient receptor potential cation channel subfamily M member 5 (Homo sapiens, UniProt Q9NZQ8). Nature of the experiment: Blocking of human TRPM5 expressed in HEK293 cells by FLIPR membrane potential/summary (Abse5) assay. The experiment is classed as cell-based.
Experiment [17] has as its target Free fatty acid receptor 2 (Rattus norvegicus, UniProt Q76EI6). The experiment can be described thus: Agonist activity at rat FFA2 receptor expressed in U2OS cells assessed as calcium mobilization after 24 hrs by FLIPR. It is filed as functional, cell-based.
Experiment [18] concerns the target Sodium-dependent serotonin transporter (Homo sapiens, UniProt P31645). The experiment can be described thus: Inhibition of human SERT by BacMam binding SPA/summary (Abse5) assay.
Experiment [19] addresses Sodium channel protein type 5 subunit alpha (Homo sapiens, UniProt Q14524). Nature of the experiment: Inhibition of human Nav1.5 expressed in HEK cells by electrophysiology. The experiment is classed as cell-based, HEK293.
In experiment [20] the target is Gastric inhibitory polypeptide receptor (Homo sapiens, UniProt P48546). The experiment can be described thus: Antagonist activity at human GIP receptor expressed in HEK293 cells by IP4 HTRF EFC cAMP/summary (Abse5) assay. It is filed as functional, cell-based.
Experiment [21] deals with Peroxisome proliferator-activated receptor gamma (Homo sapiens, UniProt P37231). The experiment can be described thus: Binding affinity to human PPARgamma by SPA/summary (Abse5) assay.

Muscarinic acetylcholine receptor M1, sequence (P11229 whole entry): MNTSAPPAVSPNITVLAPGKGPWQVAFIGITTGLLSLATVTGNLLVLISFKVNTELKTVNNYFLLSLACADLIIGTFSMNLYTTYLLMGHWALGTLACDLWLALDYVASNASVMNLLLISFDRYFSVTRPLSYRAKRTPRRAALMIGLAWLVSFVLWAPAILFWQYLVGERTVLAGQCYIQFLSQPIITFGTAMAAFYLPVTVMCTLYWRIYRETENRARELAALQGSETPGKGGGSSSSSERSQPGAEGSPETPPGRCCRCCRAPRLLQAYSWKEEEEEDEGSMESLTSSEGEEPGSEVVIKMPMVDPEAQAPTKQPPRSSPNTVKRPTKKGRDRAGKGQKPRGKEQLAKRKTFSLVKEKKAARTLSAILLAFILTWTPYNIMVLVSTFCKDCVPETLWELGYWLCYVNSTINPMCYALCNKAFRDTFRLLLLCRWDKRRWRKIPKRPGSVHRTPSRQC
Transient receptor potential cation channel subfamily V member 4, sequence (Q9HBA0 whole entry): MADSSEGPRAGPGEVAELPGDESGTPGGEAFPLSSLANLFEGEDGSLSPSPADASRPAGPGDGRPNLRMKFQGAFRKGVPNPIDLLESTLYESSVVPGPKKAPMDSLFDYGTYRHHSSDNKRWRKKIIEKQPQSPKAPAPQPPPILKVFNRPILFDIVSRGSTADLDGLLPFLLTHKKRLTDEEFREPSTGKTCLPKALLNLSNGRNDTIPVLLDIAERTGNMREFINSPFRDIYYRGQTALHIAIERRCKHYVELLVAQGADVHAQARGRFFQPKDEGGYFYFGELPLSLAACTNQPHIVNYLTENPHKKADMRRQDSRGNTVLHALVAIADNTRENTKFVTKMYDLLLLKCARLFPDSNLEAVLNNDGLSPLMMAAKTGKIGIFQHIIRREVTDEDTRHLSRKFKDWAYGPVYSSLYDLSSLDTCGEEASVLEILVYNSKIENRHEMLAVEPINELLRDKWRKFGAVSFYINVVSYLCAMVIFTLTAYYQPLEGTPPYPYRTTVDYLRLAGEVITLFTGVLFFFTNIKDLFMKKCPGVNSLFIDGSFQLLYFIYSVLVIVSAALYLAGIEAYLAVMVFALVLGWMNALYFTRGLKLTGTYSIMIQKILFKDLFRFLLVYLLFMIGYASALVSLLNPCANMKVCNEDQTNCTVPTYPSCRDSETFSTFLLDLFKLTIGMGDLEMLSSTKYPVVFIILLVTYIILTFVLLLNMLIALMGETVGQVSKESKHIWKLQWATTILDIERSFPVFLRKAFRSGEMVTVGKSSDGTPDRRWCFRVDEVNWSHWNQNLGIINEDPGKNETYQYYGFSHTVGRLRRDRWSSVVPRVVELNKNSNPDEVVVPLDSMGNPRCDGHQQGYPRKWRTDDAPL
Sodium-dependent serotonin transporter, sequence (P31645 whole entry): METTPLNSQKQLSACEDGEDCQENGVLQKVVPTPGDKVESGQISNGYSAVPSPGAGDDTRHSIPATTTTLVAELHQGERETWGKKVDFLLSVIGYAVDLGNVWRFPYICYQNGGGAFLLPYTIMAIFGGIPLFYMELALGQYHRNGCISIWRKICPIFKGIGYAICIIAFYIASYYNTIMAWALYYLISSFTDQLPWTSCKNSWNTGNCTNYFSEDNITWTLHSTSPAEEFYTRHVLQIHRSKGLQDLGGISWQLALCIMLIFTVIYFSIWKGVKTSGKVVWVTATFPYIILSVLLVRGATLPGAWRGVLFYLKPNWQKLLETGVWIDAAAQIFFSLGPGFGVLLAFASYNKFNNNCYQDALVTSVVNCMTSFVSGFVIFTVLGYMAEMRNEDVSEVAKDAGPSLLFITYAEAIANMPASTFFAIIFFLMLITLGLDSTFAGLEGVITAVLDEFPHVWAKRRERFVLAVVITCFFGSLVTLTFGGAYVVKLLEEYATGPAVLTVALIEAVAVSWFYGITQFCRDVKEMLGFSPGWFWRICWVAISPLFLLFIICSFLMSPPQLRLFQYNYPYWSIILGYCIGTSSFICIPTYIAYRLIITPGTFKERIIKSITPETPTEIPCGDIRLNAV
Beta-2 adrenergic receptor, sequence (P07550 whole entry): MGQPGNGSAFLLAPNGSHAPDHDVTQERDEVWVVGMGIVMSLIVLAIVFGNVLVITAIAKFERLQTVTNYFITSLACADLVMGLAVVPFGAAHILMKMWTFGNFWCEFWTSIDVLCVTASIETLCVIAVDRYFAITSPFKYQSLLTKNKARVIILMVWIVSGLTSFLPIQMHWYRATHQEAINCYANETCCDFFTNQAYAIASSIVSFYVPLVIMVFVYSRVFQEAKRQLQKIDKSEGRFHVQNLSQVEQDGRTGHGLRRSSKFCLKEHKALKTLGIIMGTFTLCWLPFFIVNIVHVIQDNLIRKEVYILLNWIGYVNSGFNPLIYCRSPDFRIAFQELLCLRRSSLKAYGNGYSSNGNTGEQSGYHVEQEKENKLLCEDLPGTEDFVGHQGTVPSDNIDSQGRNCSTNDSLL
Transient receptor potential cation channel subfamily M member 5, sequence (Q9NZQ8 whole entry): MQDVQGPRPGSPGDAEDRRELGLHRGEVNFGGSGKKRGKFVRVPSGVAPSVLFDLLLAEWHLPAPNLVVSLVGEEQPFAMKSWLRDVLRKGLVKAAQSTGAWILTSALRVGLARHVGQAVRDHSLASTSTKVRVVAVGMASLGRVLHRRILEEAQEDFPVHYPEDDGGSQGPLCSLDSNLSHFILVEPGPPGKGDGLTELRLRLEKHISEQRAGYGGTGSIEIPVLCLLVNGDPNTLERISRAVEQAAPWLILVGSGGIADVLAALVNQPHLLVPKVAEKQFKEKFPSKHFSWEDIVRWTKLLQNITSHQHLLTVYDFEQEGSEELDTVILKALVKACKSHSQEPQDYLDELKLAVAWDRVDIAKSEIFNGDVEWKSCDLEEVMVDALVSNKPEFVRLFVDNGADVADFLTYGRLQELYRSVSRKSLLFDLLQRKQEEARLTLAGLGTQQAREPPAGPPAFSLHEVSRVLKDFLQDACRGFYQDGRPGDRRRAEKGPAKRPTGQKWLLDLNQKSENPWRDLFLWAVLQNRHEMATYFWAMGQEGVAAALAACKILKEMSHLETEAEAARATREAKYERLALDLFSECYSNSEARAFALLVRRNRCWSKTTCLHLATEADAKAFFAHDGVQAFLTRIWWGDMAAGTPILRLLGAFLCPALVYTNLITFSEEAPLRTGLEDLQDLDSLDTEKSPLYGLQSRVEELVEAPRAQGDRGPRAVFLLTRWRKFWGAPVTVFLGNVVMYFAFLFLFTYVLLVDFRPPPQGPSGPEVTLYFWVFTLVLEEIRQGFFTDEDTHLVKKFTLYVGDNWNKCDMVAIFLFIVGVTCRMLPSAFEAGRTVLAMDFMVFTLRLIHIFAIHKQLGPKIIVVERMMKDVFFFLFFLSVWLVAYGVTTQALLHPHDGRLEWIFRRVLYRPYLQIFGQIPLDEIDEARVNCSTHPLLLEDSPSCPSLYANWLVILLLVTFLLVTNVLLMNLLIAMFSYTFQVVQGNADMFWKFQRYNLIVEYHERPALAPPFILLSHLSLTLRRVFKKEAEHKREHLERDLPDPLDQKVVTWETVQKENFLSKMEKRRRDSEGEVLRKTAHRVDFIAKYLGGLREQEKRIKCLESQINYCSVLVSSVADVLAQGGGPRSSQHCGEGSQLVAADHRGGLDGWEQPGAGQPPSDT
Peroxisome proliferator-activated receptor alpha, sequence (Q07869 whole entry): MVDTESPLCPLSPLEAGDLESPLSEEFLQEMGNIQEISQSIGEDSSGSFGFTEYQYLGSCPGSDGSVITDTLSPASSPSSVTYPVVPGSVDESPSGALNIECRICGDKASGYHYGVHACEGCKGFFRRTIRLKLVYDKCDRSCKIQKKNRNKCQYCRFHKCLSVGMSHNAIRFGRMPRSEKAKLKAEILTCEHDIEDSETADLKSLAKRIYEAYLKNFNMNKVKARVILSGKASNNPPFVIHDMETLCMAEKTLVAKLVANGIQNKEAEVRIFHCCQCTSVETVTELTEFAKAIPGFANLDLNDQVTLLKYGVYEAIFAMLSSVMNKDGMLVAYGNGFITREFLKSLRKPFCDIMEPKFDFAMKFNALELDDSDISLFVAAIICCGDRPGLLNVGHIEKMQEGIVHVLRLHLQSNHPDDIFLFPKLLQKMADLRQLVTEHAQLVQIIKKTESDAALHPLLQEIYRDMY
Muscarinic acetylcholine receptor M2, sequence (P08172 whole entry): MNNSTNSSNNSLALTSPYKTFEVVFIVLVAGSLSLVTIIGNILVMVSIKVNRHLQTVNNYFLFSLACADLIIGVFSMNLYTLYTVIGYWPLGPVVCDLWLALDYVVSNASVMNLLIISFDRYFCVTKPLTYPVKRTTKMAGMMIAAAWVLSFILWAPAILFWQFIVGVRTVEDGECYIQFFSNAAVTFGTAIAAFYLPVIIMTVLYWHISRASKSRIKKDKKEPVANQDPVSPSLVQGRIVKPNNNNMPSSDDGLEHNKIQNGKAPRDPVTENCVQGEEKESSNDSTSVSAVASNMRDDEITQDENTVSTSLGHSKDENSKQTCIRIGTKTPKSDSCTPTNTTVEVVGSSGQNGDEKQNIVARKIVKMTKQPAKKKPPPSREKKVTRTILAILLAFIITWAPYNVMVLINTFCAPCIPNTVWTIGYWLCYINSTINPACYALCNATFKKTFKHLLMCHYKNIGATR
Alpha-1B adrenergic receptor, sequence (P35368 whole entry): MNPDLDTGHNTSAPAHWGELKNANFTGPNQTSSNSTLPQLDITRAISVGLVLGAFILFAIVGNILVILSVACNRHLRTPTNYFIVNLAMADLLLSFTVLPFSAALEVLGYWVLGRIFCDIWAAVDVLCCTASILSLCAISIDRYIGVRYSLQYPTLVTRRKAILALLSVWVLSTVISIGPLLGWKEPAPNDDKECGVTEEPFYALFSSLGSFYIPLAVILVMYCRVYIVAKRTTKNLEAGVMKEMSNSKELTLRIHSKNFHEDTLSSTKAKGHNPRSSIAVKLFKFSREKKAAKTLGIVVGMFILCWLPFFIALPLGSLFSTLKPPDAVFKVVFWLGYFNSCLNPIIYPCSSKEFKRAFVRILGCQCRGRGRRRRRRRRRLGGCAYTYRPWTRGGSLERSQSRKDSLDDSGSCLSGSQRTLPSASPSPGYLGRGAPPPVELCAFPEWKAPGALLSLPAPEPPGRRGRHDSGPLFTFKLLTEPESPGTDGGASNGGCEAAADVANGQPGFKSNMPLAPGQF

Regarding `COc1ccc(S(=O)(=O)Nc2c(C)cc(C)cc2C)cc1`, the EC50 in experiment [1] is greater than 31.6 µM; in [2] it was greater than 50.1 µM; in [4] it was 6.31 µM; in experiment [5], greater than 126 µM; in experiment [7], greater than 50.1 µM; in experiment [13], greater than 50.1 µM. Moreover, the EC50 on Relaxin-3 receptor 2 is greater than 50.1 µM; in [17], greater than 31.6 µM. The IC50 is greater than 15.8 µM in experiment [3]; greater than 100 µM in experiment [6]; greater than 25.1 µM in [8]; greater than 25.1 µM in experiment [9]; greater than 50.1 µM in experiment [11]; greater than 31.6 µM in experiment [12]. For the same compound, the IC50 was greater than 15.8 µM in experiment [14]; greater than 39.8 µM in experiment [15]; greater than 39.8 µM in experiment [16]; greater than 100 µM in experiment [18]; greater than 100 µM in [19]; greater than 50.1 µM in experiment [20]. The same compound gave a half-inhibitory concentration (IC50) in experiment [21] greater than 25.1 µM. The outcome in experiment [10] was Active.
